The record followed here is a melting point compilation (Tetko et al.; mined from patent text by program, amines drawn as free bases though some values may be those of a salt).

As a reminder, the melting point is the temperature of the solid-liquid transition.

Compound `CCCCCCCCCCCCOCC(COCCCCCCCCCCCC)(CC(=O)O)CC(=O)O` gave a melting point of 80 to 82 °C.
With `N#CC1CN1C(=O)NC(=O)C=Cc1ccccc1` (centres undefined) the figure was 134 to 136 °C.
Next, `CC(=O)CCCn1c(=O)c2c(ncn2C)n(C)c1=O`: 109 to 111 °C.
The compound `COc1cc(F)ccc1Oc1c(Cl)ncnc1NS(=O)(=O)c1ccc(C(C)(C)C)cc1` came in with a melting point of 146 to 147 °C.
Compound `CNC(=O)Cc1c(-c2cc(C)sc2C)nc2sc3ccccc3n12` came in with a melting point of 238 to 239 °C.
As for `COc1cccc(-n2c(=O)c3c(c4cccnc42)OCC3)c1`, the melting point is over 260 °C.
With `O=C(O)c1cc(I)c(F)c(F)c1F` the figure was 167 to 171 °C.
On to `COc1ccc(-c2nc3cc(Cl)cc(C#CCN(O)C(=O)OC(C)(C)C)c3o2)cc1OC1CCCC1`, for which the melting point lay within 157 to 161 °C.
Regarding `COc1c(C)c(C)c(OC)c(C(O)CN)c1C` (centres undefined), the melting point lay within 110 to 112 °C.
For `Cc1oc(COc2ccc(/C=C/C=O)cc2)nc1-c1ccccc1`, the melting point was in the range of 144 to 146 °C.
Take `Cc1cccc(C(=O)Cc2ccnc(F)c2)c1`: the melting point was in the range of 66 to 67 °C.
Next, `CC1(C)CC(=O)C(C(=O)c2ccc(S(C)(=O)=O)cc2[N+](=O)[O-])C(=O)C1`: 156 to 158 °C; `c1ccc(C2CCN(c3nsc4ccccc34)CC2)cc1`: 175 to 177 °C; `CCOC(=O)C1(C(=O)OCC)CCC2(CC1)c1cc(OCC)c(OCC)cc1CCN2C(=O)OCc1ccccc1`: 88.4 to 89.1 °C.
As for `CCOC(=O)CCCCC1CC(n2c3ccccc3c3ccccc32)c2ccccc2N1C(=O)c1ccc(OC)cc1` (centres undefined), the melting point is 167 to 168 °C.
`CCCCCCCCCCCCCCCCCCC(N=C(c1ccccc1)c1ccccc1)C(=O)OCC` (centres undefined): the melting point fell in the range of 62 to 65 °C.
Take `CC(=S)NCC1CN(c2ccc(-n3cnc(Cn4ccnc4)c3)c(F)c2)C(=O)O1` (centres undefined): the melting point lay within 160 to 162 °C.
Next, `O=C(Nc1cc(C(F)(F)F)ccc1N1CCc2ccccc21)c1ccccc1`: 114 to 119 °C.
`O=C(CC1CC(O)CO1)NC1CCC(CCN2CCN(c3nccc4c3CCO4)CC2)CC1` (centres undefined) yielded a melting point of 155 °C.
Take `Nc1ccc2c3c(cccc13)CC2`: the melting point lay in the range of 178 to 179 °C.
Next, `COC(=O)C(C)(C)Cc1c(SC(C)(C)C)c2cc(OC)ccc2n1Cc1ccc(Cl)cc1`: 102 to 103 °C; `CCNC(=O)Cn1c(=O)c(=O)[nH]c2cc([N+](=O)[O-])c(-n3cccc3)cc21`: over 300 °C.
Next, `N#CCC=Cc1ccccc1S(N)(=O)=O`: 144 to 145 °C; `CCCc1c(OCc2cccc(OCc3ccc4ccccc4n3)c2)ccc2c(=O)cc(C(=O)OCC)oc12`: 120 to 121 °C; `COc1cc(-c2csc(N)n2)cc([N+](=O)[O-])c1O`: 248 to 250 °C.
`COc1cc(OC)nc(-n2c(N)nc3cc(C)ccc32)n1` showed a melting point of over 300 °C.
Next, `C=C(c1ccc(I)cc1)C(O)(Cn1cncn1)c1ccccc1Cl` (centres undefined): 128 to 130 °C; `CCOC(=O)c1nc(C(=O)OCC)nc(C(=O)OCC)n1`: 169 to 170 °C.
With `COC(=O)c1cc(O)cc(OCCCOc2ccc(OCc3ccccc3)cc2)c1` the figure was 120 to 122 °C; with `COC(=O)CNC(=O)CC(O)CBr` (centres undefined), 60 to 61 °C; with `Cc1ccccc1COCCCC(=O)O`, 79 to 80 °C.
Compound `CCC(CC)Oc1cc(C)nc2c1COCN2c1c(C)cc(Br)cc1C` gave a melting point of 206 to 209 °C.
`Cc1c(-c2cccc(C#N)c2F)sc2nc(N)[nH]c(=O)c12`: the melting point fell in the range of 350 to 370 °C.
Next, `CC(C)(C)[Si](C)(C)OCCn1nc(C=O)cc1C=O`: 63 to 64 °C; `CC(C)Oc1cc(Oc2ccc(C(F)(F)F)cn2)ccc1CCCOc1cc(CCC(=O)O)n(-c2ccccc2)n1`: 130 °C; `CCCCOc1ccc(Cc2cc3c(cn2)COC3)cc1`: 213 to 215 °C.
Take `CSc1nn2c(N3CCN(Cc4ccccc4)CC3)cc(C)nc2c1S(=O)(=O)c1ccccc1`: the melting point lay in the range of 156 to 158 °C.
With `Cc1ccnc(-n2sc3ccccc3c2=O)c1` the figure was 195 to 196 °C.
On to `Cc1nn(-c2cc(OC(C)C)c(Cl)cc2Cl)c(C)c1C`, for which the melting point was 56 to 58 °C.
With `CC1C=C2C(=CC=CC23NC(=O)NC3=O)O1` (centres undefined) the figure was 234 to 236 °C.
Next, `COC(=O)c1cc(NC(=O)OC(C)(C)C)c(N)cc1C#Cc1ccccc1`: 164 °C.
Next, `CN1CCC(NC(c2cccc(C#CCCCCN)c2)c2nc3ccccc3[nH]2)CC1` (centres undefined): 79 °C; `C#CCN(C(C)=O)c1cccc(-c2ccc3nncn3n2)c1`: 195 to 198 °C.
Compound `CCN(C(=O)N1CCN(c2ccccc2OC)CC1)c1cc(C)c(C)nc1OC` had a melting point of 112 to 113 °C.
Next, `CCOC(=O)C(C1c2ccccc2Oc2ccccc21)[N+](=O)[O-]` (centres undefined): 89 to 91 °C; `COC(=O)C1Cc2ccccc2N1c1ncnc2cc(OC)c(OC)cc12` (centres undefined): 186 to 190 °C.
For `Cc1oc2c(-n3c(=O)cc(C(F)(F)F)n(C)c3=O)ccc(Cl)c2c1NO`, the melting point was 134 to 136 °C.
With `O=C(CNc1ccc(O)cc1)N1CCC(Cc2ccc(F)cc2)CC1` the figure was 155 to 157 °C; with `Nc1ncc(I)cc1[N+](=O)[O-]`, 213 to 215 °C; with `C[C@@H]1[C@H](O)[C@@H](C)C=C(S(=O)(=O)c2ccccc2)[C@@H]2O[C@H]12`, 118 to 120 °C.
The compound `CC(C)(CSc1ccc(Cl)cc1)C(O)C(Oc1ccc(Cl)cc1)n1cncn1` (centres undefined) returned a melting point of 132 °C.
With `CCCCn1ccc(-c2ccc(C(=O)N3Cc4cccn4Cc4ccccc43)cc2)n1` the figure was 122 to 123 °C; with `Cn1nc(-c2ccccc2Cl)nc1-c1cccc([N+](=O)[O-])c1Cl`, 124 to 125 °C.
Next, `O=[N+]([O-])c1cc(CS(=O)(=O)CCO)ccc1CS(=O)(=O)CCO`: 125 to 126 °C.
With `O=[N+]([O-])c1c(Cl)cccc1CS(=O)(=O)c1ccccc1` the figure was 141 to 142 °C; with `Cn1c(C(N)=O)c(-c2ccc(F)cc2)c2ncccc2c1=O`, 300 to 301 °C.
For the compound `O=C(Nc1ccccc1)c1cnc2c(C(F)(F)F)cccc2c1-c1ccccc1`, the melting point lay within 207 to 208 °C.
With `COCC1CN(CCOc2ccc(NC(=O)Nc3cc(C(C)(C)C)nn3-c3ccc(C)cc3)c3ccccc23)CCO1` (centres undefined) the figure was 85 to 90 °C.
With `CC(C)(c1cc(F)ccc1F)S(=O)(=O)c1ccc(Cl)cc1` the figure was 147 to 148 °C.
Next, `COc1ccc2c(C)c(F)ccc2c1C(F)(F)F`: 97 to 99 °C; `CC(=O)Nc1cc([N+](=O)[O-])ccc1O`: 283 to 284 °C; `CC(C)(C)OC(=O)CN1CC(c2ccc3ccccc3c2)SCC(N2C(=O)c3ccccc3C2=O)C1=O` (centres undefined): 208 to 210 °C.
In turn, `O=S(=O)(Nc1cccc(CCOCc2ccc(-c3ccc(OC(F)(F)F)cc3)cc2F)c1)C(F)(F)F` came in with a melting point of 114 to 115 °C.
The compound `CCOC(=O)c1ncc2[nH]c3cccc(COC)c3c2c1C` gave a melting point of 133 to 135 °C.
Next, `Cc1nccc(N2CCC(CN3CCN(S(=O)(=O)c4ccc(C(F)(F)F)cc4)CC3)CC2)n1`: 135 to 136 °C.
Next, `CCCCCCCCCCCCCCCCc1ccc(S(=O)(=O)Cl)cc1`: 35 to 36 °C; `CC(Br)C(=O)c1cc([N+](=O)[O-])cs1` (centres undefined): 82.5 to 83 °C; `CCOC(=O)c1c(N2CCN(c3ccccc3)CC2)c2ccc(C)nc2n(CC)c1=O`: 110 to 112 °C.
With `C=CC(=O)OCCCOc1ccc(-c2ccc(C#N)cc2)cc1` the figure was 70 °C; with `N#Cc1cccc2c1[nH]c1ccccc12`, 200 to 201 °C; with `C[Si](C)(C)CCOC(=O)CN1C(=O)[C@@H](N2C(=O)c3ccccc3C2=O)CSC1c1ccccc1` (some centres undefined), 58 to 60 °C.
Compound `COC(=O)[C@H](Cc1ccccc1)NC(=O)CCC(=O)[C@H](Cc1ccccc1)NC(=O)c1ccccc1` registered a melting point of 106 to 109 °C.
`CNC(=O)N(C)c1nnc(SCC(=O)OC(C)(C)C)s1` displayed a melting point of 174 °C.
For the compound `CCCCC(=O)N(Cc1ccc(-c2ccccc2-c2nnn[nH]2)cc1)C(C(=O)OCc1ccccc1)C(C)C` (centres undefined), the melting point is 106 to 108 °C.
Next, `Cc1c(C)c2c(c(C)c1NC(=O)c1ccc3c(c1)OCO3)C(c1ccc(C(C)C)cc1)C(C)(C)O2` (centres undefined): 165 to 167 °C; `CC(C)(C)c1nc2cc(N3CCSCC3)c(N=C=S)cc2s1`: 155 to 159 °C; `O=C(O)c1cc(Br)ccc1COc1ccc(Br)cc1`: 214 to 215 °C.
With `Cn1nc(-c2c(F)cccc2Cl)nc1-c1ccc(Oc2ccccc2)cc1Cl` the figure was 135 to 140 °C; with `CONCc1nc2c(N)nc3cc(-c4cccnc4)cnc3c2n1CC(C)(C)O`, 195 to 197 °C.
With `C[C@@H](O)c1cc2ccoc2cn1` the figure was 59.5 to 60.5 °C.
With `CCC1(C)NC(=O)C(CCSC)O1` (centres undefined), the melting point turned out to be 62 °C.
As for `O=[N+]([O-])c1cccc(O)c1Cl`, the melting point was found to be 130 °C.
The compound `CCC(O)c1cc2c(cc1C)OCO2` (centres undefined) came in with a melting point of 71 to 72 °C.
With `CC1(C)OC(=O)Nc2ccc(-c3cccc(-c4nccs4)c3)cc21` the figure was 223 to 224 °C; with `Clc1ccc(C(c2ccc(Cl)cc2)(c2nc[nH]n2)n2ccnc2)cc1`, 188 to 191 °C.
Next, `CC(C)c1ccc(C(=O)Nc2cn3cc(-n4ccnc4)ccc3n2)cc1`: 291 to 293 °C; `O=c1c(Cl)c(Cl)cnn1COCc1ccccc1`: 60 to 64 °C.
With `CCOn1nnnc1SC[PH](=O)O` the figure was 120 to 122 °C.
`CNC(=S)C1=CC(C)(COC)Oc2ccc([N+](=O)[O-])cc21` (centres undefined) yielded a melting point of 146 to 148 °C.
